Our source for the IC50 values is article PMC10340592, “Extraction Efficiency and Alpha-Glucosidase Inhibitory Activities of Green Tea Catechins by Different Infusion Methods” (Foods, 2023).

One test has as its target rat alpha-glucosidase. Briefly: Inhibitory activity on rat alpha-glucosidase (rat intestinal acetone powder enzyme, maltose substrate, glucose read-out). The test is classed as biochemical. As to conditions: mean ± SD. As to the method: Inhibitory activity on rat alpha-glucosidase was measured as described previously with some modification. Rat alpha-glucosidase protein solution was extracted from rat intestinal acetone powders using the ultrasonication method. Briefly, 100 mg of intestinal acetone powders from rats were added to 1.0 mL of a 0.1 M maleic acid/disodium maleate buffer solution at pH 6.0. Then, one cycle of 30 s of ultrasonication and 30 s of break were repeated 6 times in ice-cold water, and the residue was separated by centrifugation (3000 rpm, 30 min, 4 °C). The supernatant was collected as the enzyme solution for experiments. Then, 50 µL of 4% maltose (w/v) and 25 µL of sample solution (GTEs or catechins) were added to a microtube and preincubated at 37 °C for 3 min. After that, 25 µL of the above enzyme solution was added and incubated at 37 °C for 30 min. Consequently, 400 µL of ultrapure water was added and inactivated at 100 °C for 4 min. After 100 µL of the inactivated reaction solution and 150 µL of color reagent (LabAssay™ Glucose kit) were mixed, the glucose contents (mg/dL) were measured at 505 nm through the spectrometer (Infinite 200 Pro MPlex, Tecan Ltd., Männedorf, Switzerland) according to the manufacturer’s instructions with the standard glucose curve. […] The inhibitory activity of each sample was calculated as follows:Inhibitory activity (%) = 100 − {(Cs − Csb)/(Cc − Cb)} × 100 • Cc: Glucose content of the negative control; • Cb: Glucose content of the blank; • Cs: Glucose content of the sample; • Csb: Glucose content of the sample blank.

The target in a further test is T1, human alpha-glucosidase (Homo sapiens, UniProt P14410).
T1 construct: cultured for 14 days to differentiate into small intestinal epithelial-like cells; host or cells: differentiated Caco-2 cells
T1 sequence (P14410 whole entry): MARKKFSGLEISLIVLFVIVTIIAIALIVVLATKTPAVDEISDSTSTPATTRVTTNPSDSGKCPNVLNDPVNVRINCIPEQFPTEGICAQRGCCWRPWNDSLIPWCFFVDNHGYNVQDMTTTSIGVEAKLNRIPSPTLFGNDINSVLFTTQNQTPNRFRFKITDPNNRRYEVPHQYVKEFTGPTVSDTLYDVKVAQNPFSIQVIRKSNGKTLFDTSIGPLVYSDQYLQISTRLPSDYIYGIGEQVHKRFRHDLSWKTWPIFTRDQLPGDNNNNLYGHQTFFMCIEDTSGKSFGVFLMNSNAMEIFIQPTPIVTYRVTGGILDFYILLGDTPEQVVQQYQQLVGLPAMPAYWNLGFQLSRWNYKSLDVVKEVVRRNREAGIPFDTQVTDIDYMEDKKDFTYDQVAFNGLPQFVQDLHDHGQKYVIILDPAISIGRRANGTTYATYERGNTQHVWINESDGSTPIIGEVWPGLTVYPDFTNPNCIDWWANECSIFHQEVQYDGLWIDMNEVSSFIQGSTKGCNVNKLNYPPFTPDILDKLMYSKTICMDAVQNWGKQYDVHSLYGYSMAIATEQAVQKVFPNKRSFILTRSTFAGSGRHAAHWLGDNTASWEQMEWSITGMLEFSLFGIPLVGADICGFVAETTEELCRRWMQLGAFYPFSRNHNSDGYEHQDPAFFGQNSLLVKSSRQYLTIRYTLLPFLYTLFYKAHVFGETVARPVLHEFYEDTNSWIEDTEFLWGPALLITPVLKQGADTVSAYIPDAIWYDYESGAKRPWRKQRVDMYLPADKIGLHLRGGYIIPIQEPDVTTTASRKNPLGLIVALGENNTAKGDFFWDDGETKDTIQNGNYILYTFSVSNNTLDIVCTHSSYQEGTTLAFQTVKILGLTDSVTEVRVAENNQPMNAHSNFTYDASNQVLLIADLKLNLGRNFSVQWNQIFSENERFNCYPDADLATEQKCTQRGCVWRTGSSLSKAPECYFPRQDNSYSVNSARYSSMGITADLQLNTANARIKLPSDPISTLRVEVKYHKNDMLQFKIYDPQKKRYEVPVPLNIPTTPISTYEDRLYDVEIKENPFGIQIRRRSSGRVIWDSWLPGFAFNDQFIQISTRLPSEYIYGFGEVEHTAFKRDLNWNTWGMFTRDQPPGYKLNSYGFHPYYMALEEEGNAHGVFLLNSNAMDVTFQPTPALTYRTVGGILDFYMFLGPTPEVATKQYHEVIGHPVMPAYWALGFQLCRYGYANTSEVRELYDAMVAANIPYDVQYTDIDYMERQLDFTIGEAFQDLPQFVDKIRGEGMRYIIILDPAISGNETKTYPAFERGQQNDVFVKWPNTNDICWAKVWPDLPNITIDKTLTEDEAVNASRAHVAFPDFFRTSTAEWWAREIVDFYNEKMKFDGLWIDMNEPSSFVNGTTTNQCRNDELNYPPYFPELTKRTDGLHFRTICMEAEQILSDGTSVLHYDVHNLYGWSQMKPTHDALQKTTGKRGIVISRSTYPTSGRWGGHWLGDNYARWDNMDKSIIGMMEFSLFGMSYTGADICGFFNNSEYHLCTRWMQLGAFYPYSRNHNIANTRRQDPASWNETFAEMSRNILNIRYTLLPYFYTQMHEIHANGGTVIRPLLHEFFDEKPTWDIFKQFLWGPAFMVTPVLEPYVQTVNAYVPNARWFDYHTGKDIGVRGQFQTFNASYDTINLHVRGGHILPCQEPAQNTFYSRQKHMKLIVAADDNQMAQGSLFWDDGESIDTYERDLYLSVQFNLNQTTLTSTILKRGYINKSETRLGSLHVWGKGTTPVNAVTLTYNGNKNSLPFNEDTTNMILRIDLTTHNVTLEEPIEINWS
The test is described as follows: Inhibitory activity on human alpha-glucosidase in differentiated Caco-2 cells (maltose substrate). It is filed as cell-based. As to conditions: mean ± SD. How it is done:
Inhibitory activity on human alpha-glucosidase was measured using differentiated Caco-2 cells as described previously with some modification. Briefly, Caco-2 cells were purchased from Riken Bioresource Research Center (Tsukuba, Japan) and cultured in Minimal Essential Medium (MEM) supplemented with 20% fetal bovine serum, 1% penicillin-streptomycin-glutamine, and 1% non-essential amino acids at 37 °C in an atmosphere of 5% CO2. After passaging, cells (2.0 × 10^4 cells/well) were seeded in 48-well plates and cultured for 14 days to differentiate into small intestinal epithelial-like cells. After 14 days, cells were washed twice with PBS, and 150 µL of sample solution at each concentration as well as 150 µL of 3 mM maltose were added. Each sample and maltose solution were dissolved in PBS. The cells were further incubated for 2 h at 37 °C in an atmosphere of 5% CO2. Then, 100 µL of cell culture supernatant was mixed with 150 µL of color reagent and measured at 505 nm through the spectrometer (Infinite 200 Pro MPlex, Tecan Ltd., Männedorf, Switzerland). The inhibitory activity of the sample was calculated in the same way as in the rat alpha-glucosidase experiment.

`Oc1cc(O)c2c(c1)O[C@H](c1ccc(O)c(O)c1)[C@@H](O)C2` [(+)C, (+)-catechin]: the IC50 on rat alpha-glucosidase worked out at 1200 ± 79.6 µM.
The same measure, in the same setting: the figure for `O=C(O[C@@H]1Cc2c(O)cc(O)cc2O[C@H]1c1ccc(O)c(O)c1)c1cc(O)c(O)c(O)c1` [Cg, (−)-catechin-3-gallate] is 112 ± 7.8 µM.
In the case of `Oc1cc(O)c2c(c1)O[C@H](c1ccc(O)c(O)c1)[C@H](O)C2` [EC, (−)-epicatechin], the half-maximal inhibitory concentration (IC50) is 134 ± 2.2 µM against human alpha-glucosidase and 675 ± 15.7 µM on rat alpha-glucosidase.
Taken in the same sequence, the figures for `O=C(O[C@@H]1Cc2c(O)cc(O)cc2O[C@@H]1c1ccc(O)c(O)c1)c1cc(O)c(O)c(O)c1` [ECg, (−)-epicatechin-3-gallate] were 78.4 ± 15.2 µM and 96.9 ± 4.5 µM.
Take `Oc1cc(O)c2c(c1)O[C@H](c1cc(O)c(O)c(O)c1)[C@H](O)C2` [EGC, (−)-epigallocatechin]: the IC50 against human alpha-glucosidase was 214 ± 3.8 µM; on rat alpha-glucosidase it was 713 ± 35.3 µM.
Taken in the same sequence, the figures for `O=C(O[C@@H]1Cc2c(O)cc(O)cc2O[C@@H]1c1cc(O)c(O)c(O)c1)c1cc(O)c(O)c(O)c1` [EGCg, (−)-epigallocatechin-3-gallate] were 90.7 ± 15.8 µM and 46 ± 3.73 µM.
Consider `O=C(O)c1cc(O)c(O)c(O)c1` [GA, gallic acid, reference compound], for which the half-inhibitory concentration (IC50) on rat alpha-glucosidase is 1030 ± 64.5 µM.
Same read-out and setting: next, `Oc1cc(O)c2c(c1)O[C@@H](c1cc(O)c(O)c(O)c1)[C@H](O)C2` [GC, (−)-gallocatechin]: 798 ± 26.8 µM; `O=C(O[C@@H]1Cc2c(O)cc(O)cc2O[C@H]1c1cc(O)c(O)c(O)c1)c1cc(O)c(O)c(O)c1` [GCg, (−)-gallocatechin-3-gallate]: 161 ± 2.4 µM; `C[C@H]1O[C@H](O[C@H]2[C@H](O)[C@@H](O)[C@@H](O[C@H]3[C@H](O)[C@@H](O)C(O)O[C@@H]3CO)O[C@@H]2CO)[C@H](O)[C@@H](O)[C@@H]1N[C@H]1C=C(CO)[C@@H](O)[C@H](O)[C@H]1O` (some centres unmarked) [acarbose, reference compound]: 2.17 ± 0.23 µM.
